Assay results published in US20090011052A1, “Anti-HIV medicinal herbs composition, preparation thereof and use of the same” (priority 2004, published 2009).

Legend:
SIVmac251 [1] = assay: Blood CD4+ lymphocyte count in SIVmac251-infected Rhesus monkey; assay type: in vivo
Source text: They were fed with commercial popped feeds.
Measurement of blood CD4^+ count: Blood samples were drawn from the animals before infection and 14, 28, 42 and 60 days after infection with SIVmac251 Ficoll lymphocyte separation fluid was adopted to isolate the peripheral lymphocytes. After tagging the anti-CD4 monoclonal antibody with direct fluorescence, the cells were counted on FACS machine to obtain the CD4^+ percentage. In combination with WBC count with DC of routine blood examination, the total count of blood CD4^+ lymphocytes was calculated. • 1.

SIVmac251 [2] = assay: Plasma viral load in SIVmac251-infected Rhesus monkey; conditions: within the dosing range
Source text: Experiment animals: 5 females and 5 males Rhesus monkey as experimental animal with 4.5-5.5 Kg/each for a total of 10 were used, purchased from Primate Breeding Center, Research Institute of Experimental Animals, Chinese Academy of Medical Sciences. They were fed with commercial popped feeds. No abnormal physical examination was found before the experiment. Potential infections with SIV, SRV Type D and STLV-I were excluded by the serum IFA antibody test.
Each animal was intravenously infected with 1 ml virus solution equivalent to 3MID100 viral load.
Within each group, there were 3-4 animals with equal females and males. […] No drug treatment was offered for SIVmac251 infection control group.
Observation pre- and post-infection: Besides other pre-infection physical examinations, body weight and blood-drawing were made for each monkey (conducting all parameter tests). […] At the pre-determined timepoints, blood was drawn for the monkey to measure the plasma viral titer, blood CD4^+ count and antibody titre. […]
Plasma virus isolation: After the animals were infected with SIVmac251, to collect the blood samples were collected respectively at Days 7, 11, 14, 21, 28, 42, 60 and the plasma were separated by heparin anti-clotting. […] The viral titre was chosen for the sample with the lowest inoculation quantity but showing the typical patterns of cellular confluence. […]

Cc1cn([C@H]2C[C@H](N=[N+]=[N-])[C@@H](CO)O2)c(=O)[nH]c1=O [AZT]
CD4 cells spared of the viral attacks (protected) (SIVmac251 [1]; 2 and 4 weeks post-infection): 35% | CD4+ lymphocytes (SIVmac251 [1]; 2 week infection): 714.51 | CD4+ lymphocytes, Difference with control (SIVmac251 [1]; 2 week infection): 187.21 | CD4+ lymphocytes, Difference with control (%) (SIVmac251 [1]; 2 week infection): (35.5%) | CD4+ lymphocytes (SIVmac251 [1]; 4 week): 540.57 | CD4+ lymphocytes, Difference with control (SIVmac251 [1]; 4 week): 137.96 | CD4+ lymphocytes, Difference with control (%) (SIVmac251 [1]; 4 week): (34.27%) | CD4+ lymphocytes (SIVmac251 [1]; 6 week): 543.31 | CD4+ lymphocytes, Difference with control (SIVmac251 [1]; 6 week): 83.24 | CD4+ lymphocytes, Difference with control (%) (SIVmac251 [1]; 6 week): (18.09%) | CD4+ lymphocytes (SIVmac251 [1]; 8 w): 530.95 | CD4+ lymphocytes, Difference with control (%) (SIVmac251 [1]; 8 w): (43.0%) | CD4+ lymphocytes (SIVmac251 [1]; Pre-experiment): 959.86 | inhibition rate upon SIV (SIVmac251 [2]): over 90%
